IC50 data for 20 compounds are collected here from ChEMBL document CHEMBL1144595, “Novel pyridinyl and pyrimidinylcarbazole sulfonamides as antiproliferative agents” (Bioorg Med Chem Lett, 2007).

What all share (format): functional, cell-based
Assay [1] in a line: Antiproliferative activity against human DND1 cells.
The subject of assay [2] is CCRF-CEM. The experiment in a line: Cytotoxicity against human CEM cells.
The test system of assay [3] is MCF7. The experiment in a line: Antiproliferative activity against human MCF7 cells.
Assay [4] relates to PC-3. The experiment in a line: Antiproliferative activity against human PC3 cells.
Assay [5] has as its system MOLT-3. The experiment in a line: Antiproliferative activity against human Molt3 cells.
Assay [6] relates to Bel-7402. The experiment in a line: Antiproliferative activity against human Bel-7402 cells.
Assay [7] concerns DU-145. As to the kind of experiment: Antiproliferative activity against human DU145 cells.

Some results are limits rather than exact numbers.

Broadly, the IC50 is the midpoint of a concentration-inhibition curve. Read a low IC50 as greater potency in that assay. Take `COc1cc([C@@H]2c3cc4c(cc3[C@H](O)[C@H]3COC(=O)[C@H]23)OCO4)cc(OC)c1OC` [PODOFILOX]: the IC50 in assay [1] is 0.012 µM; in assay [2], 0.0072 µM.

On to `CCn1c2ccccc2c2cc(/C=C\c3ccc(OC)nc3OC)ccc21`, for which, in assay [2], the IC50 was greater than 2 µM.

For the compound `COc1ccc(/C=C\c2ccc(OC)c(O)c2)c(OC)n1`, in assay [2], 0.342 µM corresponded to half-maximal inhibition (IC50).

Compound `CCn1c2ccccc2c2cc(S(=O)(=O)Nc3nc(OC)cc(OC)n3)ccc21` yielded an IC50 in assay [2] greater than 2 µM.

Consider `CCn1c2ccccc2c2cc(S(=O)(=O)Nc3ccc(OC)nc3)ccc21`, for which the concentration for half-maximal inhibition (IC50) in assay [2] was 0.649 µM.

Regarding `CCn1c2ccccc2c2cc(S(=O)(=O)Nc3cccnc3OC)ccc21`, the IC50 in assay [2] is 0.786 µM.

For `CCn1c2ccccc2c2cc(S(=O)(=O)Nc3ccc(Cl)nc3Cl)ccc21`, in assay [2], the IC50 was greater than 2 µM.

As for `COc1ccc(NS(=O)(=O)c2ccc3c(c2)c2ccccc2n3C)c(OC)n1`, in assay [2], the IC50 is 0.101 µM.

Turning to `CCn1c2ccccc2c2cc(S(=O)(=O)Nc3cc(OC)ncn3)ccc21`, the half-maximal inhibitory concentration (IC50) in assay [2] is greater than 2 µM.

Compound `CCn1c2ccccc2c2cc(S(=O)(=O)Nc3ccc(C)nc3C)ccc21` showed a 50% inhibitory concentration (IC50) in assay [2] greater than 2 µM.

On to `CCn1c2ccccc2c2cc(S(=O)(=O)Nc3ccc(OC)cc3OC)ccc21`, for which the IC50 in assay [1] came out at 0.12 µM; in assay [2] it was 0.057 µM.

As for `CCn1c2ccccc2c2cc(S(=O)(=O)Nc3ccc(OC)nc3OC)ccc21`, the IC50 in assay [3] stood at 0.241 µM; in assay [4], 0.603 µM; in assay [5] it was 0.022 µM; in assay [1], 0.193 µM; in assay [6] it was 0.976 µM; in assay [7] it was 0.729 µM. Also, in assay [2], it took 0.122 µM to reach half-maximal inhibition (IC50).

`COc1ccc(NS(=O)(=O)c2ccc3c(c2)CCN3C)c(OC)n1` returned a half-inhibitory concentration (IC50) in assay [2] greater than 2 µM.

In assay [2], `CCn1c2ccccc2c2cc(/C=C/c3ccc(OC)nc3OC)ccc21` registered an IC50 greater than 2 µM.

For `COc1ccc(NS(=O)(=O)c2ccc3c(ccn3C)c2)c(OC)n1`, 0.712 µM corresponded to half-maximal inhibition in assay [2] (IC50).

On to `COc1ccc(/C=C/c2ccc(OC)c(O)c2)c(OC)n1`, for which, in assay [2], the 50% inhibitory concentration (IC50) was greater than 2 µM.

Compound `COc1ccc(/C=C\c2cc(OC)c(OC)c(OC)c2)cc1O` [COMBRETASTATIN A4] had a concentration for half-maximal inhibition (IC50) in assay [1] of 0.0025 µM.

The compound `CCn1c2ccccc2c2cc(S(=O)(=O)Nc3cc(OC)nc(OC)n3)ccc21` had a concentration for half-maximal inhibition (IC50) in assay [2] greater than 2 µM.

`CCn1c2ccccc2c2cc(S(=O)(=O)Nc3cc(Cl)nc(Cl)c3)ccc21`: in assay [2], the IC50 was greater than 2 µM.

In the case of `CCn1c2ccccc2c2cc(S(=O)(=O)Nc3cc(OC)c(OC)c(OC)c3)ccc21`, the 50% inhibitory concentration (IC50) in assay [1] worked out at 0.089 µM; in assay [2], 0.056 µM.
